Values quoted from earlier work as cited in patent publication US7700612B2, “Di-ester prodrugs of camptothecin, process for their preparation and their therapeutical applications” (Abraxis BioScience, LLC, priority 2003, dated 2010).

Key:
[1] = animal models; J. Med. Chem. 23, 554 (1980)
[2] = test system: mouse leukemia L 1210; details: initial test, Wall et al.

Compound	potency relative to the parent camptothecin [1]	solubility in water	activity against mouse leukemia L 1210 system [2]
CC[C@@](O)(C(=O)[O-])c1cc2n(c(=O)c1CO)Cc1cc3ccccc3nc1-2.[Na+] [CPT sodium carboxylate]	10-20%	water-soluble	
CC[C@@]1(O)C(=O)OCc2c1cc1n(c2=O)Cc2cc3ccccc3nc2-1 [Camptothecin]		insoluble	active
